Laboratory results taken from patent US10981932B2, “Macrocyclic indole derivatives” (Bayer Aktiengesellschaft, priority 2016, dated 2021).
Structures can show the parent of a compound that is named as a salt.

Columns and labels:
[1] = molecular target: MCL-1 (Homo sapiens, UniProt Q07820); experiment: Protein-protein interaction assay MCL-1/Noxa BH3 peptide (MCL-1 assay), TR-FRET; type: binding; settings: MBP-MCL-1 / Noxa BH3-derived peptide, median
Summary of the method: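 MBP-MCL-1 (1 nM final) was preincubated 10 min at 22 °C with compounds (11 concentrations, 0.1 nM–20 μM, duplicates) in Tris pH 7 buffer with NaCl, KF, Tween-20, DTT and BGG. After 1 h at 22 °C in the dark plus overnight at 4 °C, anti-MBP Eu-cryptate/streptavidin-XL665 TR-FRET was read; IC50 came from a 4-parameter fit.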

[2] = system: SUDHL5; experiment: Induction of cytotoxicity (CellTiter-Glo, 5 h), SUDHL5; settings: read-out: Cytotox SUDHL5 [M] (median); SUDHL5 cells, cytotoxicity induction, CellTiter-Glo, 5 h incubation, median
[3] = molecular target: SUDHL5; experiment: Induction of caspase-3/7 activity (Caspase-Glo 3/7), SUDHL5; type: cell-based; settings: caspase-3/7 induction, SUDHL5 cells, 3 h treatment; median
Summary of the method: (§1)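 Caspase-Glo 3/7 luminescence measured after 3 h compound exposure at 37 °C in SUDHL10 and SUDHL5 cells. EC50 values come from background-corrected signals, with curve bottom set to 1 and plateau set to maximal induction by the reference compound.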

[4] = molecular target: SUDHL10; experiment: Induction of caspase-3/7 activity (Caspase-Glo 3/7), SUDHL10; type: cell-based; settings: caspase-3/7 induction, SUDHL10 cells, 3 h treatment; median
Summary of the method: as §1

[5] = system: A2780; experiment: Anti-proliferative effect (CellTiter-Glo, 72 h), A2780; type: cell-based; settings: A2780 cells, median, read-out: IC50 antiproliferation assay A2780 [M] (median)
Summary of the method: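 CellTiter-Glo luminescence readout of viability, taken on a time-zero plate at day 0 and on treated plates after 72 h incubation at 37 °C in a humidified incubator. Reagent incubation 10 min before reading.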

MCL-1, sequence (Q07820 whole entry): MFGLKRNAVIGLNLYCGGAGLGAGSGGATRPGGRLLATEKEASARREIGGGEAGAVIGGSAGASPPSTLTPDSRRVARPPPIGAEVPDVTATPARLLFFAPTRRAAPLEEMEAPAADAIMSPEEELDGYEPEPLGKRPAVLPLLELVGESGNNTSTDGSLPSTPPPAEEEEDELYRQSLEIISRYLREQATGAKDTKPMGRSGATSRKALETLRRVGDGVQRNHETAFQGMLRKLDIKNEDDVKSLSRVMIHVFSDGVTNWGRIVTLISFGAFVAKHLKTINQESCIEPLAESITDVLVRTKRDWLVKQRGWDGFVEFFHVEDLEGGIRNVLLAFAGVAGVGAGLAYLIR

Row | IC50 [1] [µM] | EC50 [3] [µM] | EC50 [4] [µM] | IC50 [5] [M] | SMILES | IC50 [2] [M]
1 | 0.000796 | 0.324 | 0.614 | 7.74e-06 | Cn1nc(COc2ccc(N3CCN(S(=O)(=O)C4CC4)CC3)cc2)c2c1COCCCCn1c(C(=O)O)c(CCCOc3cccc4ccccc34)c3cccc-2c31 (single isomer, unassigned; enantiomer 2) [Example 1-13, 3-({4-[4-(cyclopropylsulfonyl)piperazin-1-yl]phenoxy}methyl)-1-methyl-7-[3-(naphthalen-1-yloxy)propyl]-1,10,11,12,13,15-hexahydropyrazolo[4′,3′:9,10][1,6]oxazacycloundecino[8,7,6-hi]indole-8-carboxylic Acid (Enantiomer 2)] | 4.1e-07
2 | 0.0269 | > 33 | > 33 | 1.3e-05 | Cc1ccc2c(CCCOc3cccc4ccccc34)c(C(=O)O)n3c2c1-c1c(nn(C)c1C)CN(C)CCC3 (single isomer, unassigned; enantiomer 2) [Example 074, 7,10,11,12-tetramethyl-1-[3-(naphthalen-1-yloxy)propyl]-4,5,6,7,8,10-hexahydropyrazolo[3′,4′:7,8][1,5]diazecino[9,10,1-hi]indole-2-carboxylic Acid (Enantiomer 2)] | 1.2e-05

Row | SMILES | IC50 [1] [µM] | EC50 [3] [µM] | EC50 [4] [µM] | IC50 [5] [M] | IC50 [2] [M]
3 | Cc1nn(C)c2c1-c1cccc3c(CCCOc4cccc5cc(F)ccc45)c(C(=O)O)n(c13)CCCOC2 (single isomer, unassigned; enantiomer 1) [Example 047, 1-{3-[(6-fluoronaphthalen-1-yl)oxy]propyl}-9,11-dimethyl-5,6,8,9-tetrahydro-4H-pyrazolo[4′,3′:8,9][1,5]oxazecino[7,6,5-hi]indole-2-carboxylic acid-N-ethylethanamine Salt (Enantiomer 1)] | 0.00286 | 2.96 | 6.66 | 2.69e-05 | 3.22e-06
